According to patent publication US20240065302A1, “SWEETENER COMPOSITIONS COMPRISING MOGROSIDES AND USES THEREOF” (Firmenich Incorporated, priority 2021, published 2024):

Legend:
Format in all cases: in vivo, human
[1] = Expert panelists' comparison of mogrosides with stevia; settings: with respect to Examples 4 and 5 (so in the source)
Description: (§1) A panel of flavorists at three locations evaluated lemon-lime beverage various mogrosides at a concentration of 600 ppm mogrosides for in-mouth attributes (peak sweetness, upfront sweetness, bitterness, and mouthfeel/thickness) and aftertaste attributes (sweet tastle linger), on a 0 to 10 scale. The in-mouth attributes were evaluated while holding the sample in the mouth, while the aftertaste attributes were evaluated after expectoration.
as §1, with “vanilla milk containing” for “lemon-lime beverage”, “400” for “600”, “expectoration. The data was analyzed using Duncan's new multiple range test and the scores are provided in the data below in parentheses.” for “expectoration.”

[2] = Additional sensory testing for vanilla milk (panel of flavorists); settings: 400 ppm mogrosides, in-mouth, 0 to 10 scale
Description: as §1, with “vanilla milk containing” for “lemon-lime beverage”, “400” for “600”, “expectoration. The data was analyzed using Duncan's new multiple range test and the scores are provided in the data below in parentheses.” for “expectoration.”

[3] = Additional sensory testing for lemon-flavored (lemon-lime) beverage (panel of flavorists); settings: 600 ppm mogrosides, in-mouth, 0 to 10 scale
Description: as §1

[4] = Sensory testing for lemon-lime carbonated soft drink (panel of volunteers)
Description: (§2) A panel of volunteers evaluated siratose for in-mouth attributes (sweetness, delayed sweetness, sourness, bitterness, global flavor intensity, thickness/body, and astringence) and aftertaste (AT) attributes (lingering sweetness, overall off-taste intensity, licorice off-tast, bitterness off-taste, and mouth coating) on a 10-point scale. Two replicate session were conducted, with a 20 minute break between sessions. There was a 90 second delay between samples within a session. Panelists evaluated all samples in a first session and evaluated the samples again a second time in a second session. Control samples of Rebaudioside M (Reb M) were evaluated during all sessions as a control. Mogroside V was also evaluated and sensory data for mogroside V is provided.
(§3) Data analysis was performed using 2-way analysis of variance (ANOVA) with interaction using Tukey's HSD test. The data was normalized for each attribute according to average scores for Reb M.
A panel of volunteers evaluated the siratose-containing lemon-lime carbonated soft drink for in-mouth attributes and aftertaste attributes according to the methods described in Example 1 above.

[5] = Sensory testing for sparkling orange beverage (panel of volunteers)
Description: as §2, §3
A panel of volunteers evaluated a sparkling orange beverage containing siratose for in-mouth attributes and aftertaste attibutes according to the methods described in Example 1 above.

[6] = Sensory testing for vanilla milk (panel of volunteers); settings: for Licorice Aftertaste / Lingering Sweetness / Mouth Coating / Overall Off-Taste: aftertaste
Description: as §2, §3
A panel of volunteers evaluated vanilla milk containing siratose for in-mouth attributes and aftertaste attributes according to the methods described in Example 1 above.

[7] = Sensory testing for apple drink (panel of volunteers); settings: for Bitterness / Delayed Sweetness / Global Flavor Intensity / Sweetness / Thickness/Body: in-mouth, normalized to Reb M
Description: as §2, §3

[8] = 600 ppm, aftertaste, 10-point scale, normalized
[9] = 600 ppm, in-mouth, 10-point scale, normalized
[10] = 250 ppm, aftertaste, 10-point scale, normalized
[11] = 250 ppm, in-mouth, 10-point scale, normalized
[12] = 200 ppm, 10-point scale, normalized
[13] = 200 ppm, in-mouth, 10-point scale, normalized
[14] = 400 ppm, 10-point scale, normalized
[15] = 400 ppm, in-mouth, 10-point scale, normalized
[16] = 250 ppm, aftertaste, 10-point scale
[17] = 500 ppm, aftertaste, 10-point scale

In the case of `C[C@H](CC[C@@H](O[C@@H]1O[C@H](CO[C@@H]2O[C@H](CO)[C@@H](O)[C@H](O)[C@H]2O)[C@@H](O)[C@H](O)[C@H]1O[C@@H]1O[C@H](CO)[C@@H](O)[C@H](O)[C@H]1O)C(C)(C)O)[C@H]1CC[C@@]2(C)[C@@H]3CC=C4[C@@H](CC[C@H](O[C@@H]5O[C@H](CO)[C@@H](O[C@@H]6O[C@H](CO)[C@@H](O)[C@H](O)[C@H]6O)[C@H](O)[C@H]5O)C4(C)C)[C@]3(C)[C@H](O)C[C@]12C` [Isomogroside V], the “Aftertaste and mouthfeel compared with stevia (in words)” value [1] is reported as “lower licorice aftertaste and lower bitter aftertaste as compared with stevia while having a better mouthfeel”.
For `C[C@H](CC[C@@H](O[C@@H]1O[C@H](CO[C@@H]2O[C@H](CO)[C@@H](O)[C@H](O)[C@H]2O)[C@@H](O)[C@H](O)[C@H]1O[C@@H]1O[C@H](CO)[C@@H](O)[C@H](O)[C@H]1O)C(C)(C)O)[C@H]1CC[C@@]2(C)[C@@H]3CC=C4[C@@H](CC[C@H](O[C@@H]5O[C@H](CO)[C@@H](O)[C@H](O)[C@H]5O)C4(C)C)[C@]3(C)[C@H](O)C[C@]12C` [Siamenoside I], the “Aftertaste and mouthfeel compared with stevia (in words)” value [1] was “lower licorice aftertaste and lower bitter aftertaste as compared with stevia while having a better mouthfeel”, the “Peak Sweetness” value [2] was 7.375 (a)_ and the “Peak Sweetness” value [3] was 6.571 (b)_.
With `C[C@H](CC[C@@H](O[C@@H]1O[C@H](CO[C@H]2O[C@H](CO)[C@@H](O)[C@H](O)[C@H]2O)[C@@H](O)[C@H](O)[C@H]1O[C@@H]1O[C@H](CO)[C@@H](O)[C@H](O)[C@H]1O)C(C)(C)O)[C@H]1CC[C@@]2(C)[C@]3(C)CC=C4[C@@H](CC[C@H](O[C@@H]5O[C@H](CO)[C@@H](O)[C@H](O)[C@H]5O)C4(C)C)[C@]3(C)[C@H](O)C[C@]12C` [siratose] the “Aftertaste and mouthfeel compared with stevia (in words)” value [1] was “lower licorice aftertaste and lower bitter aftertaste as compared with stevia while having a better mouthfeel”, the “Sensory profile compared with mogroside V (in words)” value [4] was “higher sweetness and global flavor intensity as compared to mogroside V while having a similar aftertaste profile” and the “Bitterness Aftertaste” value [4, 8] was 1.3. The “Licorice Aftertaste” value [4, 8] was 2.3, the “Lingering Sweetness” value [4, 8] was 4.3 and the “Overall Off-Taste” value [4, 8] was 3.9. For the same compound, the Bitterness [4, 9] was 2.1, the “Delayed Sweetness” value [4, 9] was 3.9 and the “Global Flavor Intensity” value [4, 9] was 4.5. For the same compound, the Sweetness [4, 9] was 6.0, the “Sensory profile compared with control Reb M (in words)” value ([4]; same concentration) was “high sweetness score and similar in-mouth and aftertaste attributes as the control Reb M samples” and the “Off-taste and mouth coating compared with Reb M (in words)” value [5] was “slightly lower off-taste and higher mouth coating than Reb M”. The “Sweetness compared with mogroside V (in words)” value [5] was “greater sweetness than mogroside V”, the “Licorice Aftertaste” value [5, 10] was 2.9 and the “Lingering Sweetness” value [5, 10] was 4.4. For the same compound, the “Mouth Coating” value [5, 10] was 3.0, the “Overall Off-Taste” value [5, 10] was 3.1 and the “Delayed Sweetness” value [5, 11] was 4.1. For the same compound, the Sweetness [5, 11] was 5.8, the “Sweetness and delayed sweetness compared with control Reb M (in words)” value ([5]; same concentration) was “high sweetness score and an increased delayed sweetness compared to the control Reb M samples” and the “Sensory profile compared with Reb M (in words)” value ([6]; 200 ppm and 400 ppm) was “improved sweetness as comparted to Reb M”. For the same compound, the “Sensory profile compared with mogroside V (in words)” value ([6]; 200 ppm and 400 ppm) was “sweeter than mogroside V at both 200 ppm and 400 ppm, while having a similar aftertaste profile”, the “Licorice Aftertaste” value [6, 12] was 1.0 and the “Lingering Sweetness” value [6, 12] was 3.1. The “Mouth Coating” value [6, 12] was 3.2, the “Overall Off-Taste” value [6, 12] was 1.9 and the Astringence [6, 13] was 0.5. For the same compound, the “Delayed Sweetness” value [6, 13] was 1.7, the Fattiness [6, 13] was 3.1 and the Sourness [6, 13] was 0.5. For the same compound, the Sweetness [6, 13] was 5.6, the “Licorice Aftertaste” value [6, 14] was 1.1 and the “Lingering Sweetness” value [6, 14] was 4.0. The “Mouth Coating” value [6, 14] was 0.8, the “Overall Off-Taste” value [6, 14] was 2.4 and the Astringence [6, 15] was 0.5. For the same compound, the Bitterness [6, 15] was 0.6, the “Delayed Sweetness” value [6, 15] was 2.3 and the Fattiness [6, 15] was 3.6. For the same compound, the “Global Flavor Intensity” value [6, 15] was 5.1, the Sourness [6, 15] was 0.5 and the Sweetness [6, 15] was 7.1. The “Sensory profile compared with mogroside V (in words)” value [7] was “sweeter, less bitter, and have a higher global flavor intensity than mogroside V, while having a lower overall off taste, licorice aftertaste, and bitterness aftertaste”, the “Bitterness Aftertaste” value [7, 16] was 1.1 and the “Licorice Aftertaste” value [7, 16] was 1.8. The “Lingering Sweetness” value [7, 16] was 3.4, the “Overall Off-Taste” value [7, 16] was 2.8 and the Bitterness ([7]; 250 ppm, 10-point scale) was 1.5. The “Delayed Sweetness” value ([7]; 250 ppm, 10-point scale) was 2.2, the “Global Flavor Intensity” value ([7]; 250 ppm, 10-point scale) was 3.7 and the Sweetness ([7]; 250 ppm, 10-point scale) was 4.2. The Thickness/Body ([7]; 250 ppm, 10-point scale) was 1.5, the “Licorice Aftertaste” value [7, 17] was 2.8 and the “Lingering Sweetness” value [7, 17] was 5.2. For the same compound, the “Mouth Coating” value [7, 17] was 2.6, the “Overall Off-Taste” value [7, 17] was 4.0 and the Bitterness ([7]; 500 ppm, 10-point scale) was 1.7. The “Delayed Sweetness” value ([7]; 500 ppm, 10-point scale) was 3.4, the “Global Flavor Intensity” value ([7]; 500 ppm, 10-point scale) was 4.6 and the Sweetness ([7]; 500 ppm, 10-point scale) was 5.9. The Thickness/Body ([7]; 500 ppm, 10-point scale) was 1.8 and the “Sensory profile compared with control Reb M (in words)” value ([7]; same concentration) was “high sweetness score and similar in-mouth and aftertaste attributes as the control Reb M samples”.
For Isomogroside IVE, the “Aftertaste and mouthfeel compared with stevia (in words)” value [1] was “lower licorice aftertaste and lower bitter aftertaste as compared with stevia while having a better mouthfeel” and the Bitterness [2] was 1.313.
